Source: US20240158348A1, “HERBICIDAL CYCLIC AMIDES N-SUBSTITUTED WITH A HALOALKYLSULFONYLANILIDE GROUP” (FMC Corporation, priority 2021, published 2024)

Key:
Type in all cases: in vivo
[1] = test system: blackgrass (Alopecurus myosuroides); experiment: Test C preemergence, blackgrass; details: 0 is no effect, 100 is complete control
Text: (§1) Seeds of plant species selected from blackgrass (Alopecurus myosuroides), corn (Zea mays), foxtail, giant (giant foxtail, Setaria faberi), goosegrass (Eleusine indica), kochia (Bassia scoparia), oat, wild (wild oat, Avena fatua), pigweed, palmer (palmer amaranth, Amaranthus palmeri), ragweed (common ragweed, Ambrosia artemisiifolia), ryegrass, Italian (Italian ryegrass, Lolium multiflorum), soybean (Glycine max) and wheat (Triticum aestivum) were planted into a blend of loam soil and sand and treated preemergence with a directed soil spray using test chemicals formulated in a non-phytotoxic solvent mixture which included a surfactant.
(§2) At the same time, plants selected from these crop and weed species and also galium (catchweed bedstraw, Galium aparine) and horseweed (Erigeron canadensis) were planted in pots containing the same blend of loam soil and sand and treated with postemergence applications of test chemicals formulated in the same manner. Plants ranged in height from 2 to 10 cm and were in the one- to two-leaf stage for the postemergence treatment. Treated plants and untreated controls were maintained in a greenhouse for 10 or 12 days, after which time all treated plants were compared to untreated controls and visually evaluated for injury. Plant response ratings, summarized in Table A, are based on a 0 to 100 scale where 0 is no effect and 100 is complete control. A dash (-) response means no test result.

[2] = test system: oat, wild (wild oat, Avena fatua); experiment: Test C postemergence, wild oat; details: visual injury, 0 to 100 scale (0 no effect, 100 complete control)
Text: as §1, §2

[3] = test system: pigweed, palmer (palmer amaranth, Amaranthus palmeri); experiment: Test C preemergence, palmer amaranth; details: 0 is no effect, 100 is complete control
Text: as §1, §2

[4] = test system: goosegrass (Eleusine indica); experiment: Test C postemergence, goosegrass; details: visual injury, 0 to 100 scale (0 no effect, 100 complete control)
Text: as §1, §2

[5] = test system: corn (Zea mays); experiment: Test C preemergence, corn; details: 0 is no effect, 100 is complete control
Text: as §1, §2

[6] = test system: wheat (Triticum aestivum); experiment: Test C postemergence, wheat; details: visual injury, 0 to 100 scale (0 no effect, 100 complete control)
Text: as §1, §2

[7] = test system: kochia (Bassia scoparia); experiment: Test C postemergence, kochia; details: visual injury, 0 to 100 scale (0 no effect, 100 complete control)
Text: as §1, §2

[8] = test system: foxtail, giant (giant foxtail, Setaria faberi); experiment: Test C postemergence, giant foxtail; details: visual injury, 0 to 100 scale (0 no effect, 100 complete control)
Text: as §1, §2

[9] = test system: horseweed (Erigeron canadensis); experiment: Test C postemergence, horseweed; details: visual injury, 0 to 100 scale (0 no effect, 100 complete control)
Text: as §1, §2

[10] = test system: soybean (Glycine max); experiment: Test C preemergence, soybean; details: 0 is no effect, 100 is complete control
Text: as §1, §2

[11] = test system: sedge, umbrella (small-flower umbrella sedge, Cyperus difformis); experiment: Test D flooded paddy test, umbrella sedge; design: key: 0 = no effect, 100 = complete control; details: 250 g ai/ha, Flood; applied to paddy water at 2-leaf stage; visual rating after 13 days; scale 0 (no effect) to 100 (complete control)
Procedure: (§3) Plant species in the flooded paddy test selected from barnyardgrass (Echinochloa crusgalli), ducksalad (Heteranthera limosa), rice (Oryza sativa), and sedge, umbrella (small-flower umbrella sedge, Cyperus difformis) were grown to the 2-leaf stage for testing. At time of treatment, test pots were flooded to 3 cm above the soil surface, treated by application of test compounds directly to the paddy water, and then maintained at that water depth for the duration of the test. Treated plants and controls were maintained in a greenhouse for 13 days, after which time all species were compared to controls and visually evaluated. Plant response ratings, summarized in Table B, are based on a scale of 0 to 100 where 0 is no effect and 100 is complete control. A dash (-) response means no test result.

[12] = test system: ducksalad (Heteranthera limosa); experiment: Test D flooded paddy test, ducksalad; design: key: 0 = no effect, 100 = complete control; details: 250 g ai/ha, Flood; applied to paddy water at 2-leaf stage; visual rating after 13 days; scale 0 (no effect) to 100 (complete control)
Procedure: as §3

[13] = test system: ryegrass, Italian (Italian ryegrass, Lolium multiflorum); experiment: Test C postemergence, Italian ryegrass; details: visual injury, 0 to 100 scale (0 no effect, 100 complete control)
Text: as §1, §2

[14] = test system: galium (catchweed bedstraw, Galium aparine); experiment: Test C postemergence, galium; details: visual injury, 0 to 100 scale (0 no effect, 100 complete control)
Text: as §1, §2

[15] = test system: barnyardgrass (Echinochloa crusgalli); experiment: Test D flooded paddy test, barnyardgrass; design: key: 0 = no effect, 100 = complete control; details: 250 g ai/ha, Flood; applied to paddy water at 2-leaf stage; visual rating after 13 days; scale 0 (no effect) to 100 (complete control)
Procedure: as §3

[16] = test system: pigweed, palmer (palmer amaranth, Amaranthus palmeri); experiment: Test C postemergence, palmer amaranth; details: visual injury, 0 to 100 scale (0 no effect, 100 complete control)
Text: as §1, §2

[17] = test system: goosegrass (Eleusine indica); experiment: Test C preemergence, goosegrass; details: 0 is no effect, 100 is complete control
Text: as §1, §2

[18] = test system: ragweed (common ragweed, Ambrosia artemisiifolia); experiment: Test C postemergence, ragweed; details: visual injury, 0 to 100 scale (0 no effect, 100 complete control)
Text: as §1, §2

[19] = test system: oat, wild (wild oat, Avena fatua); experiment: Test C preemergence, wild oat; details: 0 is no effect, 100 is complete control
Text: as §1, §2

[20] = test system: wheat (Triticum aestivum); experiment: Test C preemergence, wheat; details: 0 is no effect, 100 is complete control
Text: as §1, §2

[21] = test system: soybean (Glycine max); experiment: Test C postemergence, soybean; details: visual injury, 0 to 100 scale (0 no effect, 100 complete control)
Text: as §1, §2

[22] = test system: foxtail, giant (giant foxtail, Setaria faberi); experiment: Test C preemergence, giant foxtail; details: 0 is no effect, 100 is complete control
Text: as §1, §2

[23] = test system: ragweed (common ragweed, Ambrosia artemisiifolia); experiment: Test C preemergence, ragweed; details: 0 is no effect, 100 is complete control
Text: as §1, §2

[24] = test system: kochia (Bassia scoparia); experiment: Test C preemergence, kochia; details: 0 is no effect, 100 is complete control
Text: as §1, §2

[25] = test system: ryegrass, Italian (Italian ryegrass, Lolium multiflorum); experiment: Test C preemergence, Italian ryegrass; details: 0 is no effect, 100 is complete control
Text: as §1, §2

[26] = test system: corn (Zea mays); experiment: Test C postemergence, corn; details: visual injury, 0 to 100 scale (0 no effect, 100 complete control)
Text: as §1, §2

[27] = test system: blackgrass (Alopecurus myosuroides); experiment: Test C postemergence, blackgrass; details: visual injury, 0 to 100 scale (0 no effect, 100 complete control)
Text: as §1, §2

[28] = test system: rice (Oryza sativa); experiment: Test D flooded paddy test, rice; design: key: 0 = no effect, 100 = complete control; details: 250 g ai/ha, Flood; applied to paddy water at 2-leaf stage; visual rating after 13 days; scale 0 (no effect) to 100 (complete control)
Procedure: as §3

For Cc1c(NS(=O)(=O)C(F)(F)F)cc(N2CCC(OC3CCC3)C2=O)c(C)c1C (stereo not shown) [Compound 45], which “Plant response rating (0 to 100 scale), Blackgrass” value ([1]; 31 g ai/ha Preemergence) is on record?
The value was 60.

What about the “Plant response rating (0 to 100 scale), Blackgrass” value ([1]; 125 g ai/ha Preemergence) of the same compound?
The value was 90.

And the “Oat, Wild plant response rating” value ([2]; 31 g ai/ha Postemergence)?
The value was 10.

What about the “Oat, Wild plant response rating” value ([2]; 125 g ai/ha Postemergence) of the same compound?
Its value is 30.

And the “Plant response rating (0 to 100 scale), Pigweed, Palmer” value ([3]; 31 g ai/ha Preemergence)?
Its value is 100.

What about the “Plant response rating (0 to 100 scale), Pigweed, Palmer” value ([3]; 125 g ai/ha Preemergence) of the same compound?
The value was 100.

What about the “Goosegrass plant response rating” value ([4]; 31 g ai/ha Postemergence) of the same compound?
Its value is 70.

And the “Goosegrass plant response rating” value ([4]; 125 g ai/ha Postemergence)?
The value was 90.

And the “Plant response rating (0 to 100 scale), Corn” value ([5]; 31 g ai/ha Preemergence)?
Its value is 90.

What about the “Plant response rating (0 to 100 scale), Corn” value ([5]; 125 g ai/ha Preemergence) of the same compound?
The value was 100.

What about the “Wheat plant response rating” value ([6]; 31 g ai/ha Postemergence) of the same compound?
The value was 20.

And the “Wheat plant response rating” value ([6]; 125 g ai/ha Postemergence)?
Its value is 60.

And the “Kochia plant response rating” value ([7]; 31 g ai/ha Postemergence)?
The value was 70.

And the “Kochia plant response rating” value ([7]; 125 g ai/ha Postemergence)?
Its value is 100.

And the “Foxtail, Giant plant response rating” value ([8]; 31 g ai/ha Postemergence)?
The value was 30.

And the “Foxtail, Giant plant response rating” value ([8]; 125 g ai/ha Postemergence)?
Its value is 80.

What about the “Horseweed plant response rating” value ([9]; 31 g ai/ha Postemergence) of the same compound?
The value was 30.

And the “Horseweed plant response rating” value ([9]; 125 g ai/ha Postemergence)?
Its value is 90.

And the “Plant response rating (0 to 100 scale), Soybean” value ([10]; 31 g ai/ha Preemergence)?
The value was 50.

And the “Plant response rating (0 to 100 scale), Soybean” value ([10]; 125 g ai/ha Preemergence)?
Its value is 100.

What about the “Plant response rating, Sedge, Umbrella” value [11] of the same compound?
Its value is 90.

And the “Plant response rating, Ducksalad” value [12]?
The value was 85.

What about the “Ryegrass, Italian plant response rating” value ([13]; 31 g ai/ha Postemergence) of the same compound?
Its value is 0.

What about the “Ryegrass, Italian plant response rating” value ([13]; 125 g ai/ha Postemergence) of the same compound?
Its value is 50.

What about the “Galium plant response rating” value ([14]; 31 g ai/ha Postemergence) of the same compound?
Its value is 100.

What about the “Galium plant response rating” value ([14]; 125 g ai/ha Postemergence) of the same compound?
Its value is 100.

What about the “Plant response rating, Barnyardgrass” value [15] of the same compound?
The value was 95.

And the “Pigweed, Palmer plant response rating” value ([16]; 31 g ai/ha Postemergence)?
Its value is 70.

And the “Pigweed, Palmer plant response rating” value ([16]; 125 g ai/ha Postemergence)?
The value was 90.

And the “Plant response rating (0 to 100 scale), Goosegrass” value ([17]; 31 g ai/ha Preemergence)?
The value was 100.

And the “Plant response rating (0 to 100 scale), Goosegrass” value ([17]; 125 g ai/ha Preemergence)?
The value was 100.

And the “Ragweed plant response rating” value ([18]; 31 g ai/ha Postemergence)?
The value was 50.

What about the “Ragweed plant response rating” value ([18]; 125 g ai/ha Postemergence) of the same compound?
The value was 80.

And the “Plant response rating (0 to 100 scale), Oat, Wild” value ([19]; 31 g ai/ha Preemergence)?
The value was 80.

And the “Plant response rating (0 to 100 scale), Oat, Wild” value ([19]; 125 g ai/ha Preemergence)?
Its value is 90.

What about the “Plant response rating (0 to 100 scale), Wheat” value ([20]; 31 g ai/ha Preemergence) of the same compound?
The value was 60.

And the “Plant response rating (0 to 100 scale), Wheat” value ([20]; 125 g ai/ha Preemergence)?
Its value is 100.

What about the “Soybean plant response rating” value ([21]; 31 g ai/ha Postemergence) of the same compound?
Its value is 80.

And the “Soybean plant response rating” value ([21]; 125 g ai/ha Postemergence)?
The value was 100.

And the “Plant response rating (0 to 100 scale), Foxtail, Giant” value ([22]; 31 g ai/ha Preemergence)?
Its value is 100.

And the “Plant response rating (0 to 100 scale), Foxtail, Giant” value ([22]; 125 g ai/ha Preemergence)?
Its value is 100.

And the “Plant response rating (0 to 100 scale), Ragweed” value ([23]; 31 g ai/ha Preemergence)?
Its value is 80.

What about the “Plant response rating (0 to 100 scale), Ragweed” value ([23]; 125 g ai/ha Preemergence) of the same compound?
The value was 100.

What about the “Plant response rating (0 to 100 scale), Kochia” value ([24]; 31 g ai/ha Preemergence) of the same compound?
The value was 90.

What about the “Plant response rating (0 to 100 scale), Kochia” value ([24]; 125 g ai/ha Preemergence) of the same compound?
Its value is 100.

What about the “Plant response rating (0 to 100 scale), Ryegrass, Italian” value ([25]; 31 g ai/ha Preemergence) of the same compound?
The value was 50.

And the “Plant response rating (0 to 100 scale), Ryegrass, Italian” value ([25]; 125 g ai/ha Preemergence)?
Its value is 90.

What about the “Corn plant response rating” value ([26]; 31 g ai/ha Postemergence) of the same compound?
Its value is 20.

What about the “Corn plant response rating” value ([26]; 125 g ai/ha Postemergence) of the same compound?
Its value is 90.

And the “Blackgrass plant response rating” value ([27]; 31 g ai/ha Postemergence)?
Its value is 10.

What about the “Blackgrass plant response rating” value ([27]; 125 g ai/ha Postemergence) of the same compound?
The value was 40.

And the “Plant response rating, Rice” value [28]?
The value was 55.
